This experiment is described as follows: Inhibition of ROCK-2 in human GTM3 cells measured up to 2 days by cell impedance assay.

For orientation: pEC50 means the EC50 on a negative log10 scale, so that one unit is a factor of ten. Low values mean a high EC50, high ones a low EC50.

pEC50: −log10 of the molar value.

In turn, `CN(C)CC(O)CN1CCN(c2nc(-c3ccncc3)cnc2N2CCCC2)CC1` (configuration not stated) gave a pEC50 of 5.82.

`CC(=O)NCC(O)CN1CCN(c2nc(-c3ccncc3)cnc2N2CCCC2)CC1` (configuration not stated) showed a pEC50 of 5.77.

For `CC(=O)NCCCN1CCN(c2nc(-c3ccncc3)cnc2N2CCCC2)CC1`, the pEC50 is 6.12. Compared with the last compound, the pEC50 is 0.35 log units higher.

The compound `c1nc(N2CCCC2)c(N2CCCNCC2)nc1-c1cc2cn[nH]c2cn1` gave a pEC50 of 6.38.

With `c1cc2[nH]ncc2cc1-c1cncc(N2CCCNCC2)n1`, the pEC50 was 6.59.

The compound `Cc1n[nH]c2ccc(-c3cncc(N4CCCNCC4)n3)cc12` had a pEC50 of 6.42.

`OCCN1CCN(c2nc(-c3ccncc3)cnc2N2CCCC2)CC1` [2-(4-(6-(pyridin-4-yl)-3-(pyrrolidin-1-yl)pyrazin-2-yl)piperazin-1-yl)ethanol] gave a negative-log EC50 (pEC50) of 6.17.

(Values after BindingDB's records for doi:10.1016/j.bmcl.2014.03.017 (Alcon Laboratories, 2014).)
